Assay: Clinical single-dose crossover study: relative bioavailability and dose proportionality from plasma ramipril and ramiprilat, tablets vs ALTACE capsules
Format: in vivo, human
[1] = doses increased from 2.5 to 20 mg

Procedure: The study followed a single-dose, open-label, four-period, four-treatment, crossover design and utilized a two-stage randomization process for 4 dose levels and 2 formulations. Each treatment was separated by a 2 week washout period. All treatments were administered following an overnight fast.
Thirty subjects were planned to be enrolled in the study to complete 24.
The ANOVA model included subject, period and formulation as fixed effects, and subject as a random effect. […] The ratios of LSM and CI were expressed as a percentage relative to the commercial capsules (ALTACE®).
Separately for the test (A, C, E, and G) and reference (B, D, F, and H) formulations, dose proportionality was evaluated. […] The ANOVA model included period as a fixed effect, intercept as a random effect, and in-transformed dose as a covariate.

C[C@H](N[C@@H](CCc1ccccc1)C(=O)O)C(=O)N1[C@H](C(=O)O)C[C@@H]2CCC[C@@H]21 [ramiprilat]
increase of AUC0-24 with dose (geometric means) [1]: proportional | increase of Cmax with dose (geometric means) [1]: more than proportional increase | increase of AUC0-t and AUC0-48 with dose (geometric means) (ramipril doses 2.5 to 20 mg): less than proportional increase

Reference: patent US20060134213A1 (priority 2004, published 2006)
